What all share (assay type): cell-based
In data set [1] the test system is recombinant adenovirus (GFP tagging). In words: antiviral activity against recombinant adenovirus (GFP fluorescence intensity) in HEK293A cells. The following applies: for inhibition at 50 µM: unidentified adenovirus, HEK293-A, 72 h, read-out: virus inhibitory activity. The method, then:
(§1) After dispensing HEK293A cells at 10,000 cells/well on a 96-well plate and stabilizing for 24 hours, the recombinant adenovirus (GFP tagging, MOI=0.5) prepared in Example and 18 compounds listed in Table 1 below (50 μM)) were treated and incubated for 24, 48 and 72 hours, the GFP fluorescence intensity (Excitation=485 nm, Emission=528 nm) was observed.

Another data set has as its system HEK293A cells. Kind of data set: cell death / cytotoxicity in compound-treated HEK293A cells. The following applies: 50 μM compound, after 72 hours of treatment.
Data set [2] deals with Herpes simplex virus (HSV). In words: antiviral activity against herpes simplex virus (HSV), same manner as the adenovirus test. The following applies: 50 μM, after 24 hours, 48 hours and 72 hours (FIG. 14). The method, then:
as §1
The experiment was performed in the same manner as in the previous experiment, except that the virus type was changed to HSV and the antiviral activity was examined.

Data set [3] concerns COVID-19 virus (COVID19 recombinant adenovirus). In words: COVID19 antibody-antigen polymerization reaction on combination treatment with ECCA A (Cyto X cell viability).

Some results are limits rather than exact numbers.

With `C=C(C)[C@@H]1CC[C@]2(C(=O)O)CC[C@]3(C)[C@H](CC[C@@H]4[C@@]5(C)[C@@H](C(=O)O)[C@H](O)C(C)(C)[C@@H]5CC[C@]43C)[C@@H]12` [Compound C2, Ceanothic acid], in data set [1], the inhibition at 50 µM was not below 50%.

With `C=C(C)[C@@H]1CC[C@]2(C(=O)O)CC[C@]3(C)[C@H](CC[C@@H]4[C@@]5(C)C[C@@H](OC(=O)/C=C/c6ccc(O)cc6)[C@H](O)C(C)(C)[C@@H]5CC[C@]43C)[C@@H]12` [Compound C4, 2-O-E-p-coumaroyl alphitolic acid], the “virus inhibitory activity (in words)” value in data set [1] (50 μM compound, HEK293A cells, recombinant adenovirus MOI=0.5) is given as “excellent virus inhibitory activity”. For the same compound, the cell death in the data set on HEK293A cells came to 100%.

As to `C=C(C)[C@@H]1CC[C@]2(C(=O)O)CC[C@]3(C)[C@H](CC[C@@H]4[C@@]5(C)CC[C@H](O)C(C)(C)[C@@H]5CC[C@]43C)[C@@H]12` [Compound C10, ECCA A], the “antiviral activity on adenovirus, compared among C2, C6, C8 and C10” value in data set [1] (50 μM, after 24 hours, 48 hours and 72 hours (FIG. 13)) is given as “most excellent”. For the same compound, the inhibition at 50 µM in data set [1] is not below 50%. Further, the “antiviral activity on HSV” value in data set [2] was “most excellent”. For the same compound, in data set [3], the antigen-antibody polymerization reaction entry is given as “effective antigen-antibody polymerization reaction was confirmed” and the “binding to the antigen fusion protein” value is “excellent”.
